Square brackets hold non-standard residues; d marks the D form. Peptide text beside a SMILES is read from it. * marks the point of attachment. pNA = O=[N+]([O-])c1ccc(N*)cc1; pGlu = O=C1CC[C@@H](C(=O)O)N1
Key:
Assay type in all cases: biochemical
Conditions in all cases: substrate solution 2 mmol/l (100 μl in 1 ml), tris buffer 50 mmol/l pH 8.0, 37° C.; pNA measured at 405 nm, Blue 49 at 623 nm
kallikrein = test: Substrate testing: cleavage of chromogenic substrate by kallikrein
Experimental: (§1) 100 μl of the enzyme solution were added to a 800 μl of buffer solution (trishydroxyaminomethane, 50 mmol/l), pH 8.0, at 37° C., and 100 μl of 2 mmol/l of substrate solution were added. pNA cleaved off was measured at 405 nm, and Blue 49 or Blue 124 was measured at 623 nm. The cleavage rates were determined in OD/minute. The relative cleavage raten, and thus the specificities of some substrates and enzymes, can be seen from Table II.

protein C = protein C (Homo sapiens, UniProt P04070); test: Substrate testing: cleavage of chromogenic substrate by protein C
Chain of protein C (P04070 212-461 limits assumed): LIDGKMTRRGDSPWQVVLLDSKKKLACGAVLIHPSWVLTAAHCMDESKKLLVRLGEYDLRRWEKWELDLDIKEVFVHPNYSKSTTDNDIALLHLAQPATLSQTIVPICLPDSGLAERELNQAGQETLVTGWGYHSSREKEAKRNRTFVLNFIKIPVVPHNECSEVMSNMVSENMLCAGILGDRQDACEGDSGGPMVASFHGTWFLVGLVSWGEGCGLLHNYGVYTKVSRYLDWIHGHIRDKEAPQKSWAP
Chain of protein C (P04070 43-197 partner limits assumed): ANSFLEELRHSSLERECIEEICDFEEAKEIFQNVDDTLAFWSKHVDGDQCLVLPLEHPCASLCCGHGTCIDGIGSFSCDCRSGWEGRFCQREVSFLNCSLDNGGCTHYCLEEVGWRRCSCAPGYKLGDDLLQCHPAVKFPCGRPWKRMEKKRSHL
Experimental: as §1

thrombin = thrombin (Homo sapiens, UniProt P00734); test: Substrate testing: cleavage of chromogenic substrate by thrombin
Experimental: as §1

plasmin = plasmin (Homo sapiens, UniProt P00747); test: Substrate testing: cleavage of chromogenic substrate by plasmin
Chain of plasmin (P00747 581-810 limits assumed, species assumed): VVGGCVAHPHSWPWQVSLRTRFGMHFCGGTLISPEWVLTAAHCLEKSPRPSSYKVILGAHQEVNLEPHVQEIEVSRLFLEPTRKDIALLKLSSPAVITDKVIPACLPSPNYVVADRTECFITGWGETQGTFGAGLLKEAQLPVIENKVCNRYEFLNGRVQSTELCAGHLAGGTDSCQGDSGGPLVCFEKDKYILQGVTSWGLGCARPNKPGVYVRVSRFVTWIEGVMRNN
Chain of plasmin (P00747 97-580 partner limits assumed, species assumed): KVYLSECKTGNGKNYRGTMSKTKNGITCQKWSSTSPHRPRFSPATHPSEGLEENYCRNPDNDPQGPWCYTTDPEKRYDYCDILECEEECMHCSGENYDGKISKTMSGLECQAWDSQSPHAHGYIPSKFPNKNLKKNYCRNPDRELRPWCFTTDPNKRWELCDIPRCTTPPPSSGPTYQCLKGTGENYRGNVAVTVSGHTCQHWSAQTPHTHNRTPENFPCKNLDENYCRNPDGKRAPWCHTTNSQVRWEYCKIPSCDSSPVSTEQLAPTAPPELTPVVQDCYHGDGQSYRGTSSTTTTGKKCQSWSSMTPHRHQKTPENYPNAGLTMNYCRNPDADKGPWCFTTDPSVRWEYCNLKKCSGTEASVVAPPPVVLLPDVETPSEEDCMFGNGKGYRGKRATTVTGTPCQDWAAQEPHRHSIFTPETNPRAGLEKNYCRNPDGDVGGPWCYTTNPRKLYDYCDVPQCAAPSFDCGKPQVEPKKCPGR
Experimental: as §1

F Xa = F Xa (Homo sapiens, UniProt P00742); test: Substrate testing: cleavage of chromogenic substrate by F Xa
Chain of F Xa (P00742 235-488 limits assumed): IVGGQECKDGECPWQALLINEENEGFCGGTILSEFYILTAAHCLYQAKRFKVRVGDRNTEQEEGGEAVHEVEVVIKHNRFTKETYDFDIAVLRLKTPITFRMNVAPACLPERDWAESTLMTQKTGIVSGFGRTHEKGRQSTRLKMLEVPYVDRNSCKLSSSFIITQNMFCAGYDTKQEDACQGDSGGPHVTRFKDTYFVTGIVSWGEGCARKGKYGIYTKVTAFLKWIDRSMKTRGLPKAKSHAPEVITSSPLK
Chain of F Xa (P00742 41-179 partner limits assumed): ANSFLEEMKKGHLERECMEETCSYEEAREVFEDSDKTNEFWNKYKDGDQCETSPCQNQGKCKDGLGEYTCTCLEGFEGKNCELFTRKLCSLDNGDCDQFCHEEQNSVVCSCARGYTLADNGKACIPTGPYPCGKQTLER
Experimental: as §1

urokinase = urokinase (Homo sapiens, UniProt P00749); test: Substrate testing: cleavage of chromogenic substrate by urokinase
Experimental: as §1

Compound | cleavage rate, kallikrein (kallikrein) [OD/minute] | cleavage rate, protein C (protein C) [OD/minute] | cleavage rate, thrombin (thrombin) [OD/minute] | cleavage rate, plasmin (plasmin) [OD/minute] | cleavage rate, F Xa (F Xa) [OD/minute] | cleavage rate, urokinase (urokinase)
7-(D-phenylalanyl-L-prolyl-L-arginylamino)-3-diethylamino-8-methylphenoxazo nium triacetate [H--D--Phe--Pro--Arg--Blue 49] | 0.00 | 0.03 | 0.395 | 0.00 | 0.01 | –
N=C(N)NCCC[C@H](NC(=O)[C@@H]1CCCCN1C(=O)[C@H](N)Cc1ccccc1)C(=O)Nc1ccc([N+](=O)[O-])cc1 [H--D--Phe--Pip--Arg--pNA, reference compound] | 0.11 | 0.075 | 0.41 | 0.035 | 0.025 | –
N=C(N)NCCC[C@H](NC(=O)CNC(=O)[C@@H]1CCC(=O)N1)C(=O)Nc1ccc([N+](=O)[O-])cc1 [pyro--Glu--Gly--Arg--pNA, reference compound] ([pGlu]-Gly-Arg-pNA) | 0.01 | 0.30 | 0.00 | 0.01 | 0.01 | –
N=C(N)NCCC[C@H](NC(=O)[C@@H]1CCCN1C(=O)[C@@H]1CCC(=O)N1)C(=O)Nc1ccc([N+](=O)[O-])cc1 [pyro--Glu--Pro--Arg--pNA, reference compound] ([pGlu]-Pro-Arg-pNA) | 0.51 | 0.40 | 0.41 | 0.53 | 0.04 | –
D--Leu--Pro--Arg--Blue 49 [H--D--Leu--Pro--Arg--Blue 49] | 0.015 | 0.47 | 0.09 | 0.015 | 0.035 | –
Tos--Gly--Pro--Arg--Blue 49 | 0.02 | 0.76 | 0.15 | 0.02 | 0.095 | –
pyro--Glu--Pro--Arg--Blue 49 | 0.015 | 0.22 | 0.015 | 0.03 | 0.02 | 1,0 OD/minute

— patent publication US5097014A, “Chromogenic tripeptides” (Behringwerke Aktiengesellschaft, priority 1986, dated 1992)
